From patent US20230240290A1, “USE OF (Z)-3-HEXENYL ESTERS AND METHOD FOR PROTECTING PLANTS AGAINST PESTS” (UNIVERSITAT POLITÈCNICA DE VALÈNCIA, priority 2020, published 2023)

How the values were obtained:
[1] = test system: PIN2 (marker gene for the JA signaling pathway); experiment: Field (commercial greenhouse) assay, transcriptional response of PIN2 in tomato plants; assay type: in vivo, tomato cv Raf; settings: LD dispenser every 20 m2, at 30 and 60 days
Protocol: To know the behavior of the dispensers loaded with (Z)-3-hexenyl propionate under real cultivation conditions, four commercial greenhouses for tomato cv Raf located in Xilxes (Castellón province), with a history of problems with T. absoluta contamination at the end of winter, were selected. An experimental design of randomized blocks was carried out where each greenhouse was considered a block with two treatments per block and 4 repetitions per treatment. […]
Twenty plants randomly chosen by repetition were sampled weekly for 11 weeks, beginning 30 Jan. […] First, the number of leaflets infested by T. absoluta per plant was counted. Then the number of N. tenuis (adults and nymphs) throughout the apical third of each plant (leaves, flowers and shoots) was counted. Following the methodology described above, 6 samples were taken from the apical part of each plant per repetition, and these samples were immediately introduced into liquid nitrogen to quantify the expression of the PR1 and PIN2 genes (described in Example 1 and Example 2). The expression of these genes was quantified one day before, 4, and 8 weeks after hanging the dispensers in the greenhouses.

[2] = test system: PIN2 (marker gene for the jasmonic acid signaling pathway); experiment: Semi-field release assay, transcriptional response of PIN2 in tomato plants; assay type: in vivo; settings: 4 weeks
Protocol: Two different types of polymeric emitters were used to test the activation level that different emission levels of (Z)-3-hexenyl propionate can provide: 4-mL low-density (LD) polyethylene vial and 4-mL high-density (HD) polyethylene vial. The highest emission level (5 mg/day) was achieved through previous laboratory studies with LD dispensers loaded with 20 mg of the pure substance. The lowest emission level (0.01 mg/day) was provided by HD vials loaded with a 1:100 mixture of (Z)-3-hexenyl propionate and paraffinic oil (0.02:2; g:g). The emission kinetics of the emitters used during the experiments was controlled by studying weight loss (gravimetric method). […] The difference in weight recorded in each period will be the emitted quantity of the substance for each type of dispenser. To obtain the mean emission level of each dispenser, the recorded weights (y) are related to the aging time (x) using a multiple regression analysis.
Once the mentioned emission levels have been established, 5 and 0.01 mg/day/dispenser, tomato plants were exposed to the different emission levels through an experiment under semi-field conditions in a glass greenhouse. […] Environmental conditions were monitored and recorded using a Mithra clima data logger (ver. 1.01.03, Priva nutricontrol Ibérica S.L). […]

[3] = test system: NPR1 (salicylic acid pathway); experiment: Transcriptional response of NPR1 in Carrizo citrange plants exposed to the volatile; assay type: in vivo; settings: intact Carrizo citrange plants exposed 24 h; n=6

CC/C=C\CCOC(=O)CC [(Z)-3-hexenyl propanoate]
Expression of PIN2 compared to plants in the control zone [1]: significantly higher | Transcriptional response of PIN2 (jasmonic acid pathway) ([2]; 0.01 mg/day emission, HD polyethylene vial): did not affect exposed plants | Transcriptional response of PIN2 (jasmonic acid pathway) ([2]; 5 mg/day emission, LD polyethylene vial): significantly activated | Transcriptional response of NPR1 compared to control [3]: significantly overexpressed
